In ChEMBL document CHEMBL1806455, “Synthesis, activity and pharmacokinetics of novel antibacterial 15-membered ring macrolones” (Eur J Med Chem, 2011):
≈ marks a conversion by molar mass, not a printed value.

Columns and labels:
Staphylococcus aureus [1] = assay: Antibacterial activity against erythromycin-sensitive Staphylococcus aureus ATCC 13709 by broth microdilution method; type: functional
Streptococcus pneumoniae [2] = assay: Antibacterial activity against erythromycin-sensitive Streptococcus pneumoniae SP030 by broth microdilution method; type: functional
Streptococcus pyogenes [3] = assay: Antibacterial activity against erythromycin-sensitive Streptococcus pyogenes 3565 by broth microdilution method; type: functional
Staphylococcus aureus [4] = assay: Antibacterial activity against efflux-mediated macrolide-resistant Staphylococcus aureus PK1 by broth microdilution method; type: functional
Streptococcus pneumoniae [5] = assay: Antibacterial activity against efflux-mediated macrolide-resistant Streptococcus pneumoniae Ci137 by broth microdilution method; type: functional
Streptococcus pyogenes [6] = assay: Antibacterial activity against efflux-mediated macrolide-resistance Streptococcus pyogenes 2 Finland by broth microdilution method; type: functional
Staphylococcus aureus [7] = assay: Antibacterial activity against inducible macrolide-lincosamide-streptogramin B resistant Staphylococcus aureus 90256 by broth microdilution method; type: functional
Streptococcus pneumoniae [8] = assay: Antibacterial activity against inducible macrolide-resistant, constitutive lincosamide, streptogramin-resistant Streptococcus pneumoniae 134 GR M by broth microdilution method; type: functional
Streptococcus pyogenes [9] = assay: Antibacterial activity against inducible macrolide-lincosamide-streptogramin B resistant Streptococcus pyogenes Finland 11 by broth microdilution method; type: functional
Staphylococcus aureus [10] = assay: Antibacterial activity against constitutive macrolide, lincosamide, streptogramin-resistant Staphylococcus aureus PK2 by broth microdilution method; type: functional
Streptococcus pneumoniae [11] = assay: Antibacterial activity against constitutive macrolide, lincosamide, streptogramin-resistant Streptococcus pneumoniae 58 spain by broth microdilution method; type: functional
Streptococcus pyogenes [12] = assay: Antibacterial activity against macrolide, lincosamide, streptogramin-resistant Streptococcus pyogenes 166 GR-Micro by broth microdilution method; type: functional
Haemophilus influenzae = assay: Antibacterial activity against Haemophilus influenzae ATCC 49247 by broth microdilution method; type: functional
Moraxella catarrhalis = assay: Antibacterial activity against Moraxella catarrhalis ATCC 23246 by broth microdilution method; type: functional
Rattus norvegicus = assay: Liver blood flow in Han Wistar rat at 10 mg/kg, iv and 50 mg/kg, po; type: ADME, organism-based; conditions: in vivo

Structure (SMILES)	MIC (Staphylococcus aureus [1]) [µg/mL]	MIC (Streptococcus pneumoniae [2]) [µg/mL]	MIC (Streptococcus pyogenes [3]) [µg/mL]	MIC (Staphylococcus aureus [4]) [µg/mL]	MIC (Streptococcus pneumoniae [5]) [µg/mL]	MIC (Streptococcus pyogenes [6]) [µg/mL]	MIC (Staphylococcus aureus [7]) [µg/mL]	MIC (Streptococcus pneumoniae [8]) [µg/mL]	MIC (Streptococcus pyogenes [9]) [µg/mL]	MIC (Staphylococcus aureus [10]) [µg/mL]	MIC (Streptococcus pneumoniae [11]) [µg/mL]	MIC (Streptococcus pyogenes [12]) [µg/mL]	MIC (Haemophilus influenzae) [µg/mL]	MIC (Moraxella catarrhalis) [µg/mL]	LBF (Rattus norvegicus) [%]
CC[C@H]1OC(=O)[C@H](C)[C@@H](O[C@H]2C[C@@](C)(OC)[C@@H](OC(=O)CCOCCNc3cc4c(=O)c(C(=O)O)cn(C5CC5)c4cc3Cl)[C@H](C)O2)[C@H](C)[C@@H](O[C@@H]2O[C@H](C)C[C@H](N(C)C)[C@H]2O)[C@](C)(O)C[C@@H](C)CN(C)[C@H](C)[C@@H](O)[C@]1(C)O	≤ 0.125	≤ 0.125	≤ 0.125	0.25 (≈ 0.222 µM)	≤ 0.125	≤ 0.125	0.25 (≈ 0.222 µM)	≤ 0.125	≤ 0.125	32 (≈ 28.4 µM)	≤ 0.125	≤ 0.125	0.5 (≈ 0.444 µM)	0.5 (≈ 0.444 µM)	26
CC[C@H]1OC(=O)[C@H](C)[C@@H](O[C@H]2C[C@@](C)(OC)[C@@H](OC(=O)CCOCCOCCNc3cc4c(=O)c(C(=O)O)cn(C5CC5)c4cc3Cl)[C@H](C)O2)[C@H](C)[C@@H](O[C@@H]2O[C@H](C)C[C@H](N(C)C)[C@H]2O)[C@](C)(O)C[C@@H](C)CN(C)[C@H](C)[C@@H](O)[C@]1(C)O	0.25 (≈ 0.214 µM)	≤ 0.125	≤ 0.125	0.25 (≈ 0.214 µM)	≤ 0.125	≤ 0.125	0.25 (≈ 0.214 µM)	≤ 0.125	≤ 0.125	16 (≈ 13.7 µM)	≤ 0.125	≤ 0.125	0.5 (≈ 0.427 µM)	≤ 0.125	13
